Source: patent US4791215A, “Derivatives of glutamic acid and aspartic acid” (priority 1984, dated 1988)

Columns and labels:
[1] = test system: morphine analgesia; experiment: Increase in analgesia of morphine, Tail Flick Test (Experiment 1); type: in vivo, rats
Outline: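 Non-fasted male rats (150-200 g); a tail point is exposed to a 75 °C heat source and latency to tail movement recorded, 8 s cut-off. Readings taken before and 10, 20, 30, 45, 60 and 90 min after analgesic treatment; percentage variation calculated per animal.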

[2] = test system: activity of analgesic drugs; experiment: Hot-plate test, potentiation of analgesic drugs (Experiment 2); type: in vivo, rats
Protocol: Experiment No. 2: Hot-plate test
The method is that described by Eddy et al. (J. Pharmac. Exp. Ther. 107, 385 (1953)).
Groups of five male rats having a weight of about 150 g, and which have not fasted, are used.
The animals are placed on a metal plate on the bottom of a transparent cylinder, which is heated to 55°±1° C. by an azeotropic boiling mixture (acetone-ethyl formate 1:1).
The reaction time is defined as the interval which passes between the moment at which the animal is placed on the hot-plate and the moment at which it either licks its feet or tries to jump out of the cylinder. The control reaction time is measured 10 and 5 minutes before administration of the drugs and 10, 20, 30, 45, 60 and 90 minutes afterwards. The animals are left on the plate for a maximum period of 30 seconds.
The response to the administration of the product is considered positive if at least a doubling of the normal reaction time is seen. The results obtained are given in Tables 2a and 2b which record the groups treated, the doses administered and the stay times on the plate expressed as the number of positive responses over the number treated.

[3] = test system: biliary flow; experiment: Biliary flow (choleretic activity); type: in vivo, rat
Outline: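 In urethane-anaesthetised rats with bile duct cannulated, bile collected 1 h before and 2 h after intravenous compound dosing. Samples weighed at 30 minute intervals; 0.5 ml physiological solution given every 30 minutes to prevent dehydration.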

## CCCN(CCC)C(=O)C(CCC(=O)O)NC(=O)c1ccc(C(C)C)cc1 (stereo not drawn) [Compound C-36]
[1]; 10', compound 10 mg/kg i.p. + morphine 2 mg/kg
  percentage variation of latency of pain sensation: 8.6%
[1]; 20', compound 10 mg/kg i.p. + morphine 2 mg/kg
  percentage variation of latency of pain sensation: 100.0 ± 0%
[1]; 30', compound 10 mg/kg i.p. + morphine 2 mg/kg
  percentage variation of latency of pain sensation: 96.9 ± 3%
[1]; 45', compound 10 mg/kg i.p. + morphine 2 mg/kg
  percentage variation of latency of pain sensation: 90.0 ± 10%
[1]; 60', compound 10 mg/kg i.p. + morphine 2 mg/kg
  percentage variation of latency of pain sensation: 96.9 ± 3%
[1]; 90', compound 10 mg/kg i.p. + morphine 2 mg/kg
  percentage variation of latency of pain sensation: 92.4 ± 25%
[1]; mean 10-90 min, compound 10 mg/kg i.p. + morphine 2 mg/kg
  M (10-90) ± SE, mean percentage variation of latency: 80.8 ± 36%
[1]; rat, in vivo
  Power ratio with respect to morphine alone: 2.71
[2]; ASA 100 + compound 10 mg/kg i.p.
  TOTAL positives: 10 X/30
[2]; ASA 100 + compound 10 mg/kg i.p., 10'
  positive responses over number treated: 1/5
[2]; ASA 100 + compound 10 mg/kg i.p., 20'
  positive responses over number treated: 2/5
[2]; ASA 100 + compound 10 mg/kg i.p., 30'
  positive responses over number treated: 3/5
[2]; ASA 100 + compound 10 mg/kg i.p., 45'
  positive responses over number treated: 2/5
[2]; ASA 100 + compound 10 mg/kg i.p., 60'
  positive responses over number treated: 1/5
[2]; ASA 100 + compound 10 mg/kg i.p., 90'
  positive responses over number treated: 1/5
[2]; ASA 100 + compound 30 mg/kg i.p.
  TOTAL positives: 14 X/30
[2]; ASA 100 + compound 30 mg/kg i.p., 10'
  positive responses over number treated: 1/5
[2]; ASA 100 + compound 30 mg/kg i.p., 20'
  positive responses over number treated: 2/5
[2]; ASA 100 + compound 30 mg/kg i.p., 30'
  positive responses over number treated: 2/5
[2]; ASA 100 + compound 30 mg/kg i.p., 45'
  positive responses over number treated: 3/5
[2]; ASA 100 + compound 30 mg/kg i.p., 60'
  positive responses over number treated: 3/5
[2]; ASA 100 + compound 30 mg/kg i.p., 90'
  positive responses over number treated: 3/5
[2]; ASA 100 + compound 100 mg/kg i.p.
  TOTAL positives: 20 X/30
[2]; ASA 100 + compound 100 mg/kg i.p., 10'
  positive responses over number treated: 3/5
[2]; ASA 100 + compound 100 mg/kg i.p., 20'
  positive responses over number treated: 3/5
[2]; ASA 100 + compound 100 mg/kg i.p., 30'
  positive responses over number treated: 4/5
[2]; ASA 100 + compound 100 mg/kg i.p., 45'
  positive responses over number treated: 4/5
[2]; ASA 100 + compound 100 mg/kg i.p., 60'
  positive responses over number treated: 4/5
[2]; ASA 100 + compound 100 mg/kg i.p., 90'
  positive responses over number treated: 2/5
[2]; methadone 1 + compound 0.3 mg/kg i.p.
  TOTAL positives: 2 X/30
[2]; methadone 1 + compound 0.3 mg/kg i.p., 10'
  positive responses over number treated: 2/5
[2]; methadone 1 + compound 0.3 mg/kg i.p., 20'
  positive responses over number treated: 2/5
[2]; methadone 1 + compound 0.3 mg/kg i.p., 30'
  positive responses over number treated: 3/5
[2]; methadone 1 + compound 0.3 mg/kg i.p., 45'
  positive responses over number treated: 3/5
[2]; methadone 1 + compound 0.3 mg/kg i.p., 60'
  positive responses over number treated: 1/5
[2]; methadone 1 + compound 0.3 mg/kg i.p., 90'
  positive responses over number treated: 1/5
[2]; methadone 1 + compound 1 mg/kg i.p.
  TOTAL positives: 19 X/30
[2]; methadone 1 + compound 1 mg/kg i.p., 10'
  positive responses over number treated: 3/5
[2]; methadone 1 + compound 1 mg/kg i.p., 20'
  positive responses over number treated: 5/5
[2]; methadone 1 + compound 1 mg/kg i.p., 30'
  positive responses over number treated: 4/5
[2]; methadone 1 + compound 1 mg/kg i.p., 45'
  positive responses over number treated: 3/5
[2]; methadone 1 + compound 1 mg/kg i.p., 60'
  positive responses over number treated: 3/5
[2]; methadone 1 + compound 1 mg/kg i.p., 90'
  positive responses over number treated: 1/5
[2]; methadone 1 + compound 3 mg/kg i.p.
  TOTAL positives: 24 X/30
[2]; methadone 1 + compound 3 mg/kg i.p., 10'
  positive responses over number treated: 5/5
[2]; methadone 1 + compound 3 mg/kg i.p., 20'
  positive responses over number treated: 5/5
[2]; methadone 1 + compound 3 mg/kg i.p., 30'
  positive responses over number treated: 3/5
[2]; methadone 1 + compound 3 mg/kg i.p., 45'
  positive responses over number treated: 4/5
[2]; methadone 1 + compound 3 mg/kg i.p., 60'
  positive responses over number treated: 5/5
[2]; methadone 1 + compound 3 mg/kg i.p., 90'
  positive responses over number treated: 2/5
[3]; 12.5 mg/kg i.v.
  % increase in biliary flow with respect to controls: +15.5%
[3]; 25 mg/kg i.v.
  % increase in biliary flow with respect to controls: +48.5%
[3]; 100 mg/kg i.v.
  % increase in biliary flow with respect to controls: +215.8%
[3]; Rattus norvegicus, iv, average over 2 hours, read-out: ED50 (dose causing 50% increase in biliary flow)
  ED50: 26.8 mg/kg
